Tests used:
[1] = target: Proto-oncogene tyrosine-protein kinase receptor Ret (Homo sapiens) (UniProt P07949); test: Inhibition of human RET using RRRRRRRRRRRVYSTDYYRLFNPS as substrate at 1 uM in presence of 32P-ATP by Hotspot assay relative to control
[2] = target: SRSF protein kinase 1 (Homo sapiens) (UniProt Q96SB4); test: Residual activity of human SRPK1 using GRSRSRSRSR as substrate at 1 uM in presence of 32P-ATP by Hotspot assay relative to control
[3] = target: STE20-like serine/threonine-protein kinase (Homo sapiens) (UniProt Q9H2G2); test: Residual activity of human SLK/STK2 using histone H3 as substrate at 1 uM in presence of 32P-ATP by Hotspot assay relative to control
[4] = target: Mitogen-activated protein kinase kinase kinase 14 (Homo sapiens) (UniProt Q99558); test: Inhibition of human NIK/MAP3K14 using at 1 uM in presence of 32P-ATP by Hotspot assay relative to control; values are per cent of control
[5] = target: SRSF protein kinase 2 (Homo sapiens) (UniProt P78362); test: Inhibition of human SRPK2 using GRSRSRSRSR as substrate at 1 uM in presence of 32P-ATP by Hotspot assay relative to control; values are per cent of control
[6] = target: T1, Phosphorylase b kinase gamma catalytic chain, liver/testis isoform (Homo sapiens) (UniProt P15735); test: Inhibition of human PHKg2 using KKLNRTLSFAEPG as substrate at 1 uM in presence of 32P-ATP by Hotspot assay relative to control; values are per cent of control
T1 sequence (whole entry): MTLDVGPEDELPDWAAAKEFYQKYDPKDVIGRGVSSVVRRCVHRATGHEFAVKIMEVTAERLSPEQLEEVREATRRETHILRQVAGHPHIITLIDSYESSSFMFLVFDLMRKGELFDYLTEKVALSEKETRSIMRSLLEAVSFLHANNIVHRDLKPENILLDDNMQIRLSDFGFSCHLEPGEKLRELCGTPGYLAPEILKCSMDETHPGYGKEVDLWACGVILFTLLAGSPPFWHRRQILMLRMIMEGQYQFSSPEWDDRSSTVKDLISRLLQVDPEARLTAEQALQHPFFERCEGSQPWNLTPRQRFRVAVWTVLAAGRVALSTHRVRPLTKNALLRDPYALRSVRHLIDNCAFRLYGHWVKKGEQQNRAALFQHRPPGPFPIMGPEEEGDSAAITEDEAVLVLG

[7] = target: Insulin-like growth factor 1 receptor (Homo sapiens) (UniProt P08069); test: Inhibition of human IGF1R using KKKSPGEYVNIEFG as substrate at 1 uM in presence of 32P-ATP by Hotspot assay relative to control; values are per cent of control
Homo sapiens = species: Homo sapiens; test: Inhibition of human CDK2/cyclin A using RB Protein as substrate at 1 uM in presence of 32P-ATP by Hotspot assay relative to control; values are per cent of control
[8] = target: Tyrosine-protein kinase JAK2 (Homo sapiens) (UniProt O60674); test: Inhibition of human JAK2 using poly[Glu:Tyr] (4:1) as substrate at 1 uM in presence of 32P-ATP by Hotspot assay relative to control; values are per cent of control
[9] = target: Dual specificity protein kinase CLK1 (Homo sapiens) (UniProt P49759); test: Inhibition of human CLK1 using myelin basic protein as substrate at 1 uM in presence of 32P-ATP by Hotspot assay relative to control; values are per cent of control
[10] = target: T2, Serine/threonine-protein kinase Nek2 (Homo sapiens) (UniProt P51955); test: Inhibition of human NEK2 using myelin basic protein as substrate at 1 uM in presence of 32P-ATP by Hotspot assay relative to control; values are per cent of control
T2 sequence (whole entry): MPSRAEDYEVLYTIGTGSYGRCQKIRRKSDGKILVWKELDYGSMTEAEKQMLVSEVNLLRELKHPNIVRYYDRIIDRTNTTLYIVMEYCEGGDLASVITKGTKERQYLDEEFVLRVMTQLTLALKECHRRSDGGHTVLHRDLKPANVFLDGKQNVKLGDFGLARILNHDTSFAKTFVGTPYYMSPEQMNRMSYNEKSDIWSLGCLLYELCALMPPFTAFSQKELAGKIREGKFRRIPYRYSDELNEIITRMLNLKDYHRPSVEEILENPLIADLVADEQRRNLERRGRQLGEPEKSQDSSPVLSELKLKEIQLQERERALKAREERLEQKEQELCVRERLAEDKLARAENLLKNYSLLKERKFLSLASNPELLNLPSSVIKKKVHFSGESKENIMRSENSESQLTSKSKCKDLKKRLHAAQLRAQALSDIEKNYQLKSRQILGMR

[11] = target: T3, Mitogen-activated protein kinase 12 (Homo sapiens) (UniProt P53778); test: Inhibition of human P38g using myelin basic protein as substrate at 1 uM in presence of 32P-ATP by Hotspot assay relative to control; values are per cent of control
T3 sequence (whole entry): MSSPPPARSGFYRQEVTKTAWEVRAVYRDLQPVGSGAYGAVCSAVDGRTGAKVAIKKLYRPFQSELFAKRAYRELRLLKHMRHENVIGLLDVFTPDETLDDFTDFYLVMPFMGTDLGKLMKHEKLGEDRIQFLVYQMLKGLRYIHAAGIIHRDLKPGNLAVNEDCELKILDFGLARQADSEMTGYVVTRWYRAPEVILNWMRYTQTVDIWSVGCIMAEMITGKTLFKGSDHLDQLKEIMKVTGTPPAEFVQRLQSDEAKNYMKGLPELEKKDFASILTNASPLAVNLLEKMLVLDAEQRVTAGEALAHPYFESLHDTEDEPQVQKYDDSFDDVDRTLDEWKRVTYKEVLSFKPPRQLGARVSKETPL

[12] = target: Mitogen-activated protein kinase kinase kinase kinase 5 (Homo sapiens) (UniProt Q9Y4K4); test: Inhibition of human KHS/MAP4K5 using myelin basic protein as substrate at 1 uM in presence of 32P-ATP by Hotspot assay relative to control; values are per cent of control
[13] = target: Serine/threonine-protein kinase 24 (Homo sapiens) (UniProt Q9Y6E0); test: Inhibition of human MST3/STK24 using myelin basic protein as substrate at 1 uM in presence of 32P-ATP by Hotspot assay relative to control; values are per cent of control
Chain of Serine/threonine-protein kinase 24 (Homo sapiens) (Q9Y6E0 whole entry, looked up): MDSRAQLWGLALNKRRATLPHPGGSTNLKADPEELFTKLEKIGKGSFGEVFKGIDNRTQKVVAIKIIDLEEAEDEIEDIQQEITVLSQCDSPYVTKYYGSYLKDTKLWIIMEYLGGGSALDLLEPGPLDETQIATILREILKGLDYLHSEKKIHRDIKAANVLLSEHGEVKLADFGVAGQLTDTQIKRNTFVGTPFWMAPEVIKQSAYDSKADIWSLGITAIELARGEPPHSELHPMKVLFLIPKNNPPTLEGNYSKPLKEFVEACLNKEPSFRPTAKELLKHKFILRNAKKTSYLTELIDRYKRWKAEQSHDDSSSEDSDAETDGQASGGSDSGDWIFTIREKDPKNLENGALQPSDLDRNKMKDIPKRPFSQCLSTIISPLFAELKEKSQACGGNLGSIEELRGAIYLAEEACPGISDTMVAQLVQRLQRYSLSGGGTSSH

Chain of Tyrosine-protein kinase JAK2 (Homo sapiens) (O60674 whole entry): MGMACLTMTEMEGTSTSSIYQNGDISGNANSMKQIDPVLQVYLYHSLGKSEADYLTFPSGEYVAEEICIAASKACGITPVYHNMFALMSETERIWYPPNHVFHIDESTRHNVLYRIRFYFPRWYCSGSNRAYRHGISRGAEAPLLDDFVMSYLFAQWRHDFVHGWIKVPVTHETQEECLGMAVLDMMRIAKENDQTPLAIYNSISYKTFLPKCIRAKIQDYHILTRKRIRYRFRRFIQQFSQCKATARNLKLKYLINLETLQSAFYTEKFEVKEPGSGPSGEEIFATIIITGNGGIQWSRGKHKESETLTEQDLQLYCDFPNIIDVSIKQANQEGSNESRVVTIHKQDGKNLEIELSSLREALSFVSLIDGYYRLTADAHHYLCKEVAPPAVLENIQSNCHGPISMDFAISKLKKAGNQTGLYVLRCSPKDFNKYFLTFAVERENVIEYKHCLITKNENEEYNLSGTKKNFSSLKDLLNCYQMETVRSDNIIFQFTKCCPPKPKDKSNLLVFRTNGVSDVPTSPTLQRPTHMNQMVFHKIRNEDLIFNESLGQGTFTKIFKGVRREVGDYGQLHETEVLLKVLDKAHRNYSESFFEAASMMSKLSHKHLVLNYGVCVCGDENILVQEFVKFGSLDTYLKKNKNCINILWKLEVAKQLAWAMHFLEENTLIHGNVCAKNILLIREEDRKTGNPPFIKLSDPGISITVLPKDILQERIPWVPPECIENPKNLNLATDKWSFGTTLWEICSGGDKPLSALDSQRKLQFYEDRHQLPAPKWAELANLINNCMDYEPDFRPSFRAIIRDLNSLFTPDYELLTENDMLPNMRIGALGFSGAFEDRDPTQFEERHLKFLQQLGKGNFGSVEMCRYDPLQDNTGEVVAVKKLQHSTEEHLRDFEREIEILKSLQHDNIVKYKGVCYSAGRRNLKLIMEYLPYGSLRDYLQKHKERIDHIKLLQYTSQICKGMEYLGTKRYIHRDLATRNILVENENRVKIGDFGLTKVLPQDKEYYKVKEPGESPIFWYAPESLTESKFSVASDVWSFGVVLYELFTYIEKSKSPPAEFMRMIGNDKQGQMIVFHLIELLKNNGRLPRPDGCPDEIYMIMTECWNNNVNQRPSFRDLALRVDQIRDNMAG
Chain of Dual specificity protein kinase CLK1 (Homo sapiens) (P49759 whole entry, looked up): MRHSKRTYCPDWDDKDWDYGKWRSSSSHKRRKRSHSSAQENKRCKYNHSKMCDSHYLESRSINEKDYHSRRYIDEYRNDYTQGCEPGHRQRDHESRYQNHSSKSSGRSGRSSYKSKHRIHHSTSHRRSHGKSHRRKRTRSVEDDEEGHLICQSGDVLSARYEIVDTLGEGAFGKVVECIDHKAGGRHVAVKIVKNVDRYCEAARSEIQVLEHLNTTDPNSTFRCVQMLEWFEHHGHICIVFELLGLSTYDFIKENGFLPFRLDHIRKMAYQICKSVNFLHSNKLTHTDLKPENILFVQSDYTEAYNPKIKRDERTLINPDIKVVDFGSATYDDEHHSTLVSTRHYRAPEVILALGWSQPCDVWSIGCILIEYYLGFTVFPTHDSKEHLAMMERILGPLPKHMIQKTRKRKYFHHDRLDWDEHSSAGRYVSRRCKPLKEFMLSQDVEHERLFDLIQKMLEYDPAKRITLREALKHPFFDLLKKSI
Chain of SRSF protein kinase 1 (Homo sapiens) (Q96SB4 whole entry): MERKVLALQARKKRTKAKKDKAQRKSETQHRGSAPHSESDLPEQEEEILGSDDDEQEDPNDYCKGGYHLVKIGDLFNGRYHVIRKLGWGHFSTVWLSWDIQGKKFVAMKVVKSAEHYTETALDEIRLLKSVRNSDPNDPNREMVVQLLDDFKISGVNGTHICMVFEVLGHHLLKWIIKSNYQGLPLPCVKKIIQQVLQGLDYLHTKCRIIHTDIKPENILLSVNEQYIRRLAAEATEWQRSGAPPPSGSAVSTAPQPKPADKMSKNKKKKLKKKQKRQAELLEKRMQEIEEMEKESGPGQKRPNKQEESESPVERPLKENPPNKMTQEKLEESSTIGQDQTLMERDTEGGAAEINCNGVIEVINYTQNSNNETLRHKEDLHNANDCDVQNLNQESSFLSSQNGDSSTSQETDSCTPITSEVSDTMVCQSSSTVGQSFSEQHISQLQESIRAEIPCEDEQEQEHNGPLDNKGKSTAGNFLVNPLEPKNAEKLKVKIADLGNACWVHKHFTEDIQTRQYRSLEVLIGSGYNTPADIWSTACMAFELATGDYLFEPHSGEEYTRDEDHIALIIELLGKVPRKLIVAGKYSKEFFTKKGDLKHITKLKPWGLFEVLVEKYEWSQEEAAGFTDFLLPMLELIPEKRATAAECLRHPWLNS
Chain of STE20-like serine/threonine-protein kinase (Homo sapiens) (Q9H2G2 whole entry, looked up): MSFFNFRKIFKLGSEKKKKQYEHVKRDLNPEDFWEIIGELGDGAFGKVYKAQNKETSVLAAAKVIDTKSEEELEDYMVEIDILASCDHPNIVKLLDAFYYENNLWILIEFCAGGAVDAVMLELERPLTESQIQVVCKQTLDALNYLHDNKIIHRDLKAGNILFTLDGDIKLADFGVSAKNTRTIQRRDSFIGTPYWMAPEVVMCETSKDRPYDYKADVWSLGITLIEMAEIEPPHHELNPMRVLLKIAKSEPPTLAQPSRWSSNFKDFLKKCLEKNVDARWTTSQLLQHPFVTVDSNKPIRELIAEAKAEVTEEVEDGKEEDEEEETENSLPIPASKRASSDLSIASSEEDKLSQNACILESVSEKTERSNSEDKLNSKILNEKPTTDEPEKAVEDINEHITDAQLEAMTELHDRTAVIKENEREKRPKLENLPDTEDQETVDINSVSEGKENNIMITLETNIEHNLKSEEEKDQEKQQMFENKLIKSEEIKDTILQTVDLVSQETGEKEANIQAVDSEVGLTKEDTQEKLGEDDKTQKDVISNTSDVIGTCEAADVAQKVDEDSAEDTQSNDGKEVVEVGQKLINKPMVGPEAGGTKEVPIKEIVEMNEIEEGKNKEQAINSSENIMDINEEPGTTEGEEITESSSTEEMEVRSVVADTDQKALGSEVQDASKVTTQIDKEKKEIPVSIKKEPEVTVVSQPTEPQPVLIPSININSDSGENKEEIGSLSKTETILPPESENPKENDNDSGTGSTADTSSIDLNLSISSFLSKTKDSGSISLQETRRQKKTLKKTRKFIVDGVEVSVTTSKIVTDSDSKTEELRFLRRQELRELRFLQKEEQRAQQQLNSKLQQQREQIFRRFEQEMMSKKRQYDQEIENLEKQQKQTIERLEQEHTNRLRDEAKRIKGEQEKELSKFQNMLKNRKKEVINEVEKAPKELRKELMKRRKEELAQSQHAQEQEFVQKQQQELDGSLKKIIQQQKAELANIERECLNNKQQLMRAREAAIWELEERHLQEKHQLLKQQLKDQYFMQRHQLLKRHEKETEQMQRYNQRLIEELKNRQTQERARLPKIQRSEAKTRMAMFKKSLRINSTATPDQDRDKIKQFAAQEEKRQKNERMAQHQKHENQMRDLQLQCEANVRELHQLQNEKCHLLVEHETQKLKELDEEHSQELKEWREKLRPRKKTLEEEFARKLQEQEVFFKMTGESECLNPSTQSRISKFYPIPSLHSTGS
Chain of SRSF protein kinase 2 (Homo sapiens) (P78362 whole entry, looked up, canonical isoform): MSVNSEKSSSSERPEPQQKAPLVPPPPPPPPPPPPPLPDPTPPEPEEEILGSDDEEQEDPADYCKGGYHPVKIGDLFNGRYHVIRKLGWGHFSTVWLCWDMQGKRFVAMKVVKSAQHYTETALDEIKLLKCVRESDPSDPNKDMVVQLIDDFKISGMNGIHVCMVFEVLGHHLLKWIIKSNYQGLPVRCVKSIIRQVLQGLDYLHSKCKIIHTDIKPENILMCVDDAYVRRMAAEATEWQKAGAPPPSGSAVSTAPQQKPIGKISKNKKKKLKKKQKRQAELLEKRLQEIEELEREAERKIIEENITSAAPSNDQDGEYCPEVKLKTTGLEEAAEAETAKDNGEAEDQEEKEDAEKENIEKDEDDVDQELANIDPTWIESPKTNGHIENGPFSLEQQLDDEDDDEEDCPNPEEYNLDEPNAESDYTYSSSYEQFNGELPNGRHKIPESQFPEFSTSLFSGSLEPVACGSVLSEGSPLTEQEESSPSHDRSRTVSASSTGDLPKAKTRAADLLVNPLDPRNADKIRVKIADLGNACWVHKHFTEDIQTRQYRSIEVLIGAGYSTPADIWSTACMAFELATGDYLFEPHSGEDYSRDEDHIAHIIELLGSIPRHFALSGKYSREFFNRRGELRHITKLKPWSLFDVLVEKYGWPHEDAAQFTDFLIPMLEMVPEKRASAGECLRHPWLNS

| Compound | inhibition [1] [%] | residual activity [2] [%] | residual activity [3] [%] | residual activity [4] [%] | residual activity [5] [%] | residual activity [6] [%] | residual activity [7] [%] | residual activity (Homo sapiens) [%] | residual activity [8] [%] | residual activity [9] [%] | residual activity [10] [%] | residual activity [11] [%] | residual activity [12] [%] | residual activity [13] [%] |
| --- | --- | --- | --- | --- | --- | --- | --- | --- | --- | --- | --- | --- | --- | --- |
| CC(C)S(=O)(=O)c1ccc2nccc(Nc3ccc4scnc4c3)c2c1 | 48.1 | 104 | 87.8 | 89.5 | 94 | 98.2 | 100 | 97.2 | 102 | 97.6 | 100 | 98.5 | 109 | 100 |
| Cc1cc(-c2cnc(N)c3c(-c4ccc5scnc5c4)csc23)n(C)n1 | 30 | 95.3 | 94.6 | 92.9 | 96.2 | 95.4 | 101 | 86 | 89.8 | 74.7 | 101 | 105 | 64.3 | 93.9 |
| CNC(=O)c1ccc2c(c1)ncn2-c1ccc(CC(=O)OC(C)(C)C)cc1 | 92.2 | 112 | 92.1 | 95.3 | 98.5 | 100 | 97.6 | 101 | 95.7 | 95.4 | 102 | 95.7 | 89 | 94 |

Reference: ChEMBL document CHEMBL5649166, “RIP3 induces apoptosis independent of pronecrotic kinase activity” (Mol Cell, 2014)
